Experimental findings from US11427539B2, “Beta-hydroxy heterocyclic amines and their use in the treatment of hyperglycaemia” (ATROGI AB, priority 2017, dated 2022) are described below.

Counter-ions that a name gives are not always drawn. Like-named read-outs stand apart in the source and are kept apart here. Some results are limits rather than exact numbers.

Test [1] has as its system Differentiated L6-myotubes. As to the kind of experiment: Glucose uptake in differentiated L6-myotubes (3H-2-deoxy-glucose). Type of test: cell-based. To be noted: for Emax: read-out: Biological example 1: glucose uptake, activity compared to that of isoproterenol; for Biological example 1: glucose uptake, activity compared to that of isoproterenol: Hydrochloride.
For test [2], the system named is Intracellular cAMP levels in differentiated cells (L6-myotubes). As to the kind of experiment: Measurement of intracellular cAMP levels (alpha screen cAMP kit). The format is cell-based. Particulars: for Emax: 0.25 h, read-out: Biological example 2: intracellular cAMP levels, activity compared to that of isoproterenol. As to the method:
L6-myoblasts were grown in Dulbecco's Modified Eagle's Medium (DMEM) containing 4.5 g/l glucose supplemented with 10% fetal bovine serum, 2 mM L-Glutamine, 50 U/ml penicillin, 50 μg/ml streptomycin and 10 mM HEPES. Cells were plated at 1×10^5 cells per ml in 24-well plates. After reaching 90% confluence the cells were grown in medium containing 2% FBS for 7 days where upon cells differentiated into myotubes. Differentiated cells were serum-starved over night and stimulated with agonist, final concentration 1×10-^5, for 15 min in stimulation buffer (HBSS supplemented with 1% BSA, 5 mM HEPES and 1 mM IBMX, pH 7.4) The medium was then aspirated and to end the reaction 100 μL of 95% EtOH was added to each well of a 24-well plate and cells were kept in −20° C. over night. The EtOH was let to evaporate and 500 μL of lysis buffer (1% BSA, 5 mM HEPES and 0.3% Tween-20, pH 7.4) was added to each well before put in −80° C. for 30 min and then kept in −20° C. Intracellular cAMP levels were detected using an alpha screen cAMP kit (6760635D from Perkin Elmer). The activity for each compound is compared to that of isoproterenol.

Setting [3] is: agonist final concentration 1×10^−5, L6-myotubes, 3H-2-deoxy-glucose uptake, relative to isoproterenol.
Setting [4] is: agonist final concentration 1×10-^5, 15 min, differentiated cells, relative to isoproterenol.

Turning to `CCC[C@@H]1CC[C@H]([C@H](O)c2cccc(Cl)c2)N1` [Example 47, (R)-(3-Chlorophenyl)((2R,5R)-5-propylpyrrolidin-2-yl)methanol Maleate], the Emax in test [1] (setting [3]) is 50 to 75%; in test [2] (setting [4]) it was < 25%.
The matching figures for `CCC[C@@H]1CC[C@H]([C@H](O)c2cccc(F)c2)N1` [Example 7, (R)-(3-Fluorophenyl)((2R,5R)-5-propylpyrrolidin-2-yl)methanol Acetate]: > 75% and < 25%.
Consider `C[C@H]1CC[C@@H]([C@H](O)c2cccc(O)c2)N1` (racemic) [Example 9, Racemic mixture of 3-((R)-Hydroxy((2S,5S)-5-methylpyrrolidin-2-yl)methyl)-phenol Acetate and 3-((S)-Hydroxy((2R,5R)-5-methylpyrrolidin-2-yl)methyl)phenol Acetate], for which the Emax was 50 to 75% in test [1] (setting [3]) and < 25% in test [2] (setting [4]).
For `CCC[C@H]1CCC[C@H]([C@H](O)c2cccc(O)c2)N1` [Example 5, 3-((R)-Hydroxy((2R,6S)-6-propylpiperidin-2-yl)methyl)phenol Acetate], in that order: > 75% and < 25%.
For `CCC[C@H]1CC[C@@H]([C@@H](O)c2cccc(F)c2)N1` [Example 42, (S)-(3-Fluorophenyl)((2S,5S)-5-propylpyrrolidin-2-yl)methanol Hydrochloride], in that order: 50 to 75% and < 25%.
On to `CCC[C@H]1CCC[C@H]([C@@H](O)c2cccc(Cl)c2)N1` [Example 21, (S)-(3-Chlorophenyl)((2R,6S)-6-propylpiperidin-2-yl)methanol hydrochloride], for which the Emax in test [1] (setting [3]) was 25 to 50%; in test [2] (setting [4]) it was < 25%.
`CCC[C@@H]1CCC[C@@H]([C@H](O)c2cccc(F)c2)N1` [Example 29, (R)-(3-Fluorophenyl)((2S,6R)-6-propylpiperidin-2-yl)methanol hydrochloride]: the Emax in test [1] (setting [3]) is 25 to 50%; in test [2] (setting [4]), < 25%.
`CCC[C@H]1CCC[C@H]([C@H](O)c2ccccc2Cl)N1` [Example 24, (R)-(2-Chlorophenyl)((2R,6S)-6-propylpiperidin-2-yl)methanol]: the Emax in test [1] (setting [3]) was 25 to 50%; in test [2] (setting [4]), < 25%.
For `CCC[C@@H]1CCC[C@@H]([C@H](O)c2cccc(O)c2)N1` [Example 32, 3-((R)-hydroxy((2S,6R)-6-propylpiperidin-2-yl)methyl)phenol Hydrochloride], in that order: > 75% and < 25%.
With `CCC[C@@H]1CCC[C@H]([C@H](O)c2ccc(F)cc2)N1` [Example 15, (R)-(4-Fluorophenyl)((2R,6R)-6-propylpiperidin-2-yl)methanol], the figures for the Emax in test [1] (setting [3]) and in test [2] (setting [4]) were 50 to 75% and < 25%, respectively.
With `CCC[C@H]1CCC[C@H]([C@@H](O)c2cccc(F)c2)N1` [Example 18, (S)-(3-Fluorophenyl)((2R,6S)-6-propylpiperidin-2-yl)methanol], the results for the Emax in test [1] (setting [3]) and in test [2] (setting [4]) were 50 to 75% and < 25%, respectively.
In the case of `CCC[C@H]1CCC[C@@H]([C@H](O)c2cccc(F)c2)N1` [Example 34, (R)-(3-Fluorophenyl)((2S,6S)-6-propylpiperidin-2-yl)methanol hydrochloride], the Emax in test [1] (setting [3]) was 50 to 75%; in test [2] (setting [4]), < 25%.
The matching figures for `CCC[C@@H]1CC[C@H]([C@H](O)c2cccc(O)c2)N1` [Example 8, 3-((R)-Hydroxy((2R,5R)-5-propylpyrrolidin-2-yl)methyl)phenol]: > 75% and 25 to 50%.
With `CCC[C@H]1CCC[C@@H]([C@@H](O)c2cccc(F)c2)N1` [Example 35, (S)-(3-Fluorophenyl)((2S,6S)-6-propylpiperidin-2-yl)methanol hydrochloride], the figures for the Emax in test [1] (setting [3]) and in test [2] (setting [4]) were 25 to 50% and < 25%, respectively.
As for `CCC[C@H]1CC[C@H](C(O)c2cccc(O)c2)N1` (stereo in doubt) [Example 46, 3-((R)-hydroxy((2R,5S)-5-propylpyrrolidin-2-yl)methyl)phenol], the Emax is 50 to 75% in test [1] (setting [3]) and < 25% in test [2] (setting [4]).
The matching figures for `CCC[C@@H]1CCC[C@H]([C@H](O)c2cccc(O)c2)N1` [Example 6, 3-((R)-Hydroxy((2R,6R)-6-propylpiperidin-2-yl)methyl)phenol]: 50 to 75% and < 25%.
`CCC[C@@H]1CC[C@H]([C@@H](O)c2cccc(F)c2)N1` [Example 39, (S)-(3-Fluorophenyl)((2R,5R)-5-propylpyrrolidin-2-yl)methanol Hydrochloride]: the Emax in test [1] (setting [3]) is 50 to 75%; in test [2] (setting [4]) it was < 25%.
On to `CCCC1CCC[C@H](C(O)c2cccc(O)c2)N1` (stereo in doubt) [Example 19, 3-((R)-Hydroxy((2R,6R)-6-propylpiperidin-2-yl)methyl)phenol Hydrochloride], for which the Emax in test [1] (setting [3]) is 25 to 50%; in test [2] (setting [4]), < 25%.
For `CCC[C@H]1CC[C@@H]([C@H](O)c2cccc(F)c2)N1` [Example 41, (R)-(3-fluorophenyl)((2S,5S)-5-propylpyrrolidin-2-yl)methanol Hydrochloride], in that order: 50 to 75% and < 25%.
Turning to `CCC[C@@H]1CCC[C@H]([C@@H](O)c2ccccc2F)N1` [Example 17, (S)-(2-Fluorophenyl)((2R,6R)-6-propylpiperidin-2-yl)methanol hydrochloride], the Emax was 25 to 50% in test [1] (setting [3]) and < 25% in test [2] (setting [4]).
The matching figures for `CCC[C@H]1CC[C@H]([C@H](O)c2cccc(F)c2)N1` [Example 45, (R)-(3-Fluorophenyl)((2R,5S)-5-propylpyrrolidin-2-yl)methanol]: 50 to 75% and < 25%.
Turning to `CCC[C@@H]1CCC[C@@H]([C@H](O)c2cccc(Cl)c2)N1` [Example 30, (R)-(3-Chlorophenyl)((2S,6R)-6-propylpiperidin-2-yl)methanol hydrochloride], the Emax in test [1] (setting [3]) is > 75%; in test [2] (setting [4]), < 25%.
Consider `CCC[C@@H]1CCCC([C@@H](O)c2cccc(O)c2)N1` (stereo in doubt) [Example 33, 3-((S)-hydroxy((2S,6R)-6-propylpiperidin-2-yl)methyl)phenol Hydrochloride], for which the “Biological example 1: glucose uptake, activity compared to that of isoproterenol” value in test [1] (setting [3]) is “++ (between 75 and 50%)”. In addition, the “Biological example 2: intracellular cAMP levels, activity compared to that of isoproterenol” value in test [2] (setting [4]) was “− (less than 25%)”.
Take `CCC[C@@H]1CCC[C@H]([C@H](O)c2cccc(F)c2)N1` [Example 1, (R)-(3-Fluorophenyl)((2R,6R)-6-propylpiperidin-2-yl)methanol]: the Emax was 25 to 50% in test [1] (setting [3]) and < 25% in test [2] (setting [4]).
For `CCC[C@@H]1CC[C@@H]([C@H](O)c2cccc(F)c2)N1` [Example 43, (R)-(3-Fluorophenyl)((2S,5R)-5-propylpyrrolidin-2-yl)methanol Hydrochloride], in that order: 25 to 50% and < 25%.
The matching figures for `CCC[C@H]1CCC[C@H]([C@H](O)c2ccc(F)cc2)N1` [Example 25, (R)-(4-Fluorophenyl)((2R,6S)-6-propylpipehdin-2-yl)methanol]: 50 to 75% and < 25%.
As to `C[C@H]1CC[C@@H]([C@H](O)c2ccccc2)N1` (racemic) [Example 11, Racemic mixture of (R)-((2S,5S)-5-Methylpyrrolidin-2-yl)(phenyl)methanol and (S)-((2R,5R)-5-Methylpyrrolidin-2-yl)(phenyl)methanol], the Emax in test [1] was 25 to 50%; in test [2], < 25%.
Take `CCC[C@@H]1CCC[C@H]([C@@H](O)c2cccc(F)c2)N1` [Example 13, (S)-(3-Fluorophenyl)((2R,6R)-6-propylpiperidin-2-yl)methanol]: the Emax in test [1] (setting [3]) was 50 to 75%; in test [2] (setting [4]), < 25%.
The matching figures for `CCC[C@@H]1CC[C@H]([C@@H](O)c2cccc(O)c2)N1` [Example 40, 3-((S)-Hydroxy((2R,5R)-5-propylpyrrolidin-2-yl)methyl)phenol]: 25 to 50% and < 25%.
Turning to `CCC[C@@H]1CCC[C@H]([C@@H](O)c2cccc(O)c2)N1` [Example 14, 3-((S)-Hydroxy((2R,6R)-6-propylpiperidin-2-yl)methyl)phenol Hydrochloride], the “Biological example 1: glucose uptake, activity compared to that of isoproterenol” value in test [1] (setting [3]) was “+ (between 50 and 25%)”. Moreover, the Emax in test [2] (setting [4]) is < 25%.
As to `CCC[C@H]1CCC[C@H]([C@H](O)c2ccc(F)c(F)c2)N1` [Example 4, (R)-(3,4-Difluorophenyl)((2R,6S)-6-propylpiperidin-2-yl)methanol], the Emax in test [1] (setting [3]) is 50 to 75%; in test [2] (setting [4]) it was < 25%.
